From PMC8219378, “A putative structural mechanism underlying the antithetic effect of homologous RND1 and RhoD GTPases in mammalian plexin regulation” (eLife, 2021) come the findings set out here.

The target of experiment [1] is T1, RhoD/plexin B2-RBD complex (Homo sapiens, UniProt O00212, Q75L).
T1 construct: human RhoD 8-194 Q75L (catalytically dead), His6-tag removed by 3C protease, E. coli BL21(DE3); mouse plexin B2 intracellular region 1274-1842, tag removed, E. coli ArcticExpress(DE3), degraded in drops to RBD (1463-1565, domain-swapped dimer); with Plexin-B2 (Mus musculus)
T1 sequence (O00212 8-194 Q75L): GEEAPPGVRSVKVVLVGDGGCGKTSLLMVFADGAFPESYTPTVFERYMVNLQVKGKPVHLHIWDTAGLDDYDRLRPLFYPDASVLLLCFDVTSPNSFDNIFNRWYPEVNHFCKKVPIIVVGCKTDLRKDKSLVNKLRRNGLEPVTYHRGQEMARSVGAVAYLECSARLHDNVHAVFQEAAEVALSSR
T1 sequence (B2RXS4 1463-1565 partner): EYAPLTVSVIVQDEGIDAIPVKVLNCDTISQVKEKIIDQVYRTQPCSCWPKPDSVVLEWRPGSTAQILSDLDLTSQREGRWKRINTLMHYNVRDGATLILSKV
Put plainly: X-ray crystal structure, […] Å. Conditions: Mg2+; GTP-binding site of RhoD; RhoD loaded by EDTA exchange; complex with plexin B2 RBD.

For experiment [2], the target named is T2, human RhoD (residues 8-194) with the Q75L mutation, bound to GMP-PNP (human, UniProt O00212 8-194, Q75L).
T2 construct: Loaded with the GTP analogue GMP-PNP and Mg2+ before crystallization; His6 tag removed with human rhinovirus 3C protease; also called GMP-PNP-loaded RhoD; source: E. coli BL21 (DE3), purified (HisTrap, anion exchange, Superdex 75); not shown: His6, N-terminal, cleaved
T2 sequence (looked up): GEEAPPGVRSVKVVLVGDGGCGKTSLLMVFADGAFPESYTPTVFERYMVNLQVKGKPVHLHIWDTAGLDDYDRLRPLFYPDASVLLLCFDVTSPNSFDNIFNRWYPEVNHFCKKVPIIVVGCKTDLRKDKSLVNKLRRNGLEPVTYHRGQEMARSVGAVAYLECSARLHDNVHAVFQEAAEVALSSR
Put plainly: crystal structure; plexin B2 (1274-1842) and GMP-PNP-loaded RhoD mixed at 1:1 molar ratio, 6 mg/mL; crystals grown for over a month at 20 C in 0.2 M MgCl2, 22% PEG3350, 100 mM MIB pH 6.8; molecular replacement, 3.1 A; two RhoD and two RBD in the asymmetric unit. Particulars: both partners purified.

For the molecule `Nc1nc2c(ncn2[C@@H]2O[C@H](COP(=O)(O)OP(=O)(O)NP(=O)(O)O)[C@@H](O)[C@H]2O)c(=O)[nH]1` [GMP-PNP, guanosine 5′-[β,γ-imido]triphosphate], the “X-ray crystal structure, 3.1 Å” value in experiment [1] was “complex of mouse plexin B2 and human RhoD bound to the GTP analogue GMP-PNP”.

B1: mouse plexin B2 RBD (Rho-GTPase-binding domain), as found in the crystal (domain or fragment, UniProt B2RXS4 1463-1565, looked up)
chain: EYAPLTVSVIVQDEGIDAIPVKVLNCDTISQVKEKIIDQVYRTQPCSCWPKPDSVVLEWRPGSTAQILSDLDLTSQREGRWKRINTLMHYNVRDGATLILSKV
notes: Plexin B2, mouse; Expressed as the intracellular region without the juxtamembrane region (residues 1274-1842); it degraded during crystallization and the crystal held only the RBD, built as residues 1463-1509 and 1510-1565; The range is that of the residues modelled in the structure; In the crystal two RBD chains form a domain-swapped dimer (swap between residues 1509 and 1510), which the authors …
For B1, the binding result in experiment [2] was “binds”.
